Experimental data taken from paper PMC11714206, “Massively Parallel Screening of Toll/Interleukin‐1 Receptor (TIR)‐Derived Peptides Reveals Multiple Toll‐Like Receptors (TLRs)‐Targeting Immunomodulatory Peptides” (Advanced Science, 2024).
Each block holds one sequence with its values, some of them ahead of it.

Biological target: T1, MyD88^TIR (Homo sapiens, UniProt Q99836)
T1 construct: MyD88 (residues 148–296); 6xHis; made in house; host or cells: E. coli BL21 (DE3)
Assay: T‐Surf phage library (P8 and P3) selection against MyD88^TIR, four rounds, NGS read counts
Assay type: binding
Details: for P3_MyD88 Rank (after) / P3_MyD88 Rank (before): P3 library; for P8_MyD88 Rank (after) / P8_MyD88 Rank (before): P8 library; for Population: 4th round of selection against MyD88 TIR, share of NGS reads
Protocol: T‐Surf libraries were screened against the immobilized TIR domains of two major human TLR adaptor proteins, MAL^TIR and MyD88^TIR, allowing cross‐species selection of TIR‐binding motifs with 190 946 TIR‐derived peptides in a single binding assay (Scheme 1). Enriched phage pools from the fourth round of selection were analyzed using NGS after barcoding the peptide‐coding regions of the phage pools.
Phage display screening was performed by coating two wells of a 96‐well plate (Maxisorp, Thermo Fisher Scientific) with 100 µL of 5 µg mL^−1 TIR domains overnight; then, the coated wells were blocked with 200 µL of blocking buffer (0.2% BSA in PBS) and set aside for 1 h at 4 °C with gentle shaking. Next, 100 µL of the phage library was added to the wells and incubated for 1 h at room temperature (RT; 20 – 22 °C) with gentle shaking. The plate was washed four times with PBS containing 0.5% Tween‐20; the bound phages were eluted by adding 100 µL of 100 mM HCl to each well. The elute was neutralized with 10 µL of 1.0 M Tris‐HCl (pH 11.0). E. coli TG1 cells were grown to the log phase (A600 = ≈0.6), and 1 mL of the culture was incubated with 100 µL of the eluted phages for 30 min at 37 °C, with shaking at 200 rpm. Next, 1 µL of M13KO7 helper phages was added, followed by incubation for 45 min at 37 °C, with shaking. Subsequently, the cells were transferred to 25 mL of 2× yeast extract tryptone/carbenicillin/kanamycin medium and incubated overnight at 37 °C with shaking at 200 rpm. The amplified phages were precipitated with 20% PEG‐8000/2.5 M NaCl to be used for the next round of selection.
The naïve T‐Surf libraries in P8 and P3 and the enriched phage pools after four rounds were barcoded for NGS as previously described.^[ [59] ^] Briefly, 5 µL of the phage pool was used as a template for 20 cycles of a 50 µL PCR reaction using […] each of forward and reverse barcoded primers and PrimeSTAR Max DNA Polymerase. The PCR products were purified using Expin Gel SV (GeneAll). The NGS samples were quantified using qPCR, following the qPCR Quantification Protocol Guide (KAPA Library Quantification kits for Illumina Sequencing Platform), and qualified using the TapeStation High Sensitivity D1000 ScreenTape (Agilent Technologies). The indexed libraries were further sequenced by Macrogen (Seoul, Republic of Korea) using the NovaSeq platform (Illumina) with 100 bp paired‐end reads. The reads were demultiplexed by barcodes and filtered for an average Phred quality score of at least 30, followed by trimming the flanking consensus sequences using Cutadapt (version 2.3). Peptide sequence populations were analyzed according to the read counts.

[1] = 4R selection against MyD88, rank after grouping
[2] = 4R selection against MyD88, rank before grouping
[3] = selection against MyD88, rank after grouping
[4] = selection against MyD88, rank before grouping
[5] = P3_MyD88: rank by count after grouping
[6] = P3_MyD88: rank by count before grouping
[7] = selection against MyD88 TIR, rank by count after grouping
[8] = selection against MyD88 TIR, rank by count before grouping
[9] = P8_MyD88: rank by count after grouping
[10] = P8_MyD88: rank by count before grouping
[11] = P8_MyD88: rank by NGS read count after grouping
[12] = P8_MyD88: rank by NGS read count before grouping
[13] = selection against MyD88, rank by count after grouping
[14] = selection against MyD88, rank by count before grouping
[15] = P3_MyD88 pool: P3 T-Surf phage library

T1 sequence (Q99836 148-296): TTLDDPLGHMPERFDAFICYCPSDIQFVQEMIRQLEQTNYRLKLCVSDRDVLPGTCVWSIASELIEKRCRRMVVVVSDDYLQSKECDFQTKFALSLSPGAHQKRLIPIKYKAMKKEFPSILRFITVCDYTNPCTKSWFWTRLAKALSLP

Sequence: PSEVRKQTGSLAKAAL
P3_MyD88 Rank (after) [1]: 593 | P3_MyD88 Rank (before) [2]: 2756

Sequence: LKVDSWRQALEKAGNL
Rank (after) [5]: 117 | Rank (before) [6]: 2469

Sequence: LGYHWLNWESFVGIED
P8_MyD88 Rank (after) [3]: 547 | P8_MyD88 Rank (before) [4]: 3345

Sequence: DPQDREWFYERLVSLF
P8_MyD88 Rank (after) [7]: 277 | P8_MyD88 Rank (before) [8]: 2957

Sequence: PQDLDWFYERLVSQM
P8_MyD88 Rank (after) [13]: 716 | P8_MyD88 Rank (before) [14]: 3426

Sequence: WALDERLIIQYANETM
P8_MyD88 Rank (after) [13]: 679 | P8_MyD88 Rank (before) [14]: 1510

Sequence: EWFYERLFSQMRKDIK
P8_MyD88 Rank (after) [7]: 275 | P8_MyD88 Rank (before) [8]: 586

Sequence: DWVLGYRLPNLEGPAG
P8_MyD88 Rank (after) [13]: 741 | P8_MyD88 Rank (before) [14]: 2395

Sequence: YTALTYSGFHTFRDNV
P3_MyD88 Rank (after) [7]: 276 | P3_MyD88 Rank (before) [8]: 1642

Sequence: DPPDLDWCYQRLVNLP
Rank (after) [11]: 1026 | Rank (before) [12]: 2628

Sequence: RFGGDTFLEYLVLISM
P8_MyD88 Rank (after) [13]: 765 | P8_MyD88 Rank (before) [14]: 3753

Sequence: SENYATSPWALTELVH
P3_MyD88 Rank (after) [7]: 278 | P3_MyD88 Rank (before) [8]: 2986

Sequence: FLSYRSLEKRFGPIGP
Rank (after) [5]: 190 | Rank (before) [6]: 1344

Sequence: DPQDLDWFYERLVSL
P8_MyD88 Rank (after) [7]: 233 | P8_MyD88 Rank (before) [8]: 716

Sequence: PSEVRKQTGSLAKALRRNCC
P3_MyD88 Rank (after) [7]: 254 | P3_MyD88 Rank (before) [8]: 1130

Sequence: LKGGDSYFWSKQPYAL
Rank (after) [5]: 385 | Rank (before) [6]: 2529

Sequence: WALDELLQLQHARELF
P8_MyD88 Rank (after) [3]: 561 | P8_MyD88 Rank (before) [4]: 1431

Sequence: SSCREGLWRLLELIKK
P3_MyD88 Rank (after) [1]: 607 | P3_MyD88 Rank (before) [2]: 3259

Continued, values first:

P3_MyD88 Rank (after) [1]: 634 | P3_MyD88 Rank (before) [2]: 1728
Sequence: YNFISHLYDALRLNKIAPF

P8_MyD88 Rank (after) [3]: 544 | P8_MyD88 Rank (before) [4]: 1423
Sequence: WALDEVLKIQDDNETM

P8_MyD88 Rank (after) [3]: 526 | P8_MyD88 Rank (before) [4]: 3060
Sequence: DIEYIHLFWDRLLYSL

Rank (after) [5]: 389 | Rank (before) [6]: 2314
Sequence: LVAHQISKTIKIFATI

P8_MyD88 Rank (after) [7]: 237 | P8_MyD88 Rank (before) [8]: 416
Sequence: LRYDDPWFWEKLVFAM

Rank (after) [9]: 157 | Rank (before) [10]: 173 | Population (P8_MyD88 pool: P8 T-Surf phage library): 0.00809%
Sequence: ELWVLRYLLPTLEEQQ

Rank (after) [11]: 951 | Rank (before) [12]: 1858
Sequence: YASSSWYLDELCIFC

P3_MyD88 Rank (after) [3]: 578 | P3_MyD88 Rank (before) [4]: 2406
Sequence: LKCGEPYFWSKLRYSI

P8_MyD88 Rank (after) [13]: 721 | P8_MyD88 Rank (before) [14]: 1462
Sequence: WALDELLQILQARELS

P3_MyD88 Rank (after) [3]: 567 | P3_MyD88 Rank (before) [4]: 3671
Sequence: KERPFGAQRAEKWRAALT

P3_MyD88 Rank (after) [1]: 667 | P3_MyD88 Rank (before) [2]: 3223
Sequence: SSFREALWRLIELSTK

Rank (after) [11]: 934 | Rank (before) [12]: 2964
Sequence: DPQDHYLLYERLVSLF

Rank (after) [11]: 925 | Rank (before) [12]: 2010
Sequence: YLLLSVLHTRSARGYV

Rank (after) [5]: 439 | Rank (before) [6]: 1851
Sequence: GLYDELFMTETDERKR

Rank (after) [11]: 945 | Rank (before) [12]: 2099
Sequence: YPQDLEWLYERLVSPV

Rank (after) [5]: 136 | Rank (before) [6]: 3388
Sequence: NDLVHGWSSKANSLVG

Rank (after) [5]: 454 | Rank (before) [6]: 2099
Sequence: DTKLKKGRKHCAGTAA

Population [15]: 0.00349%
Sequence: LKVESWRQALGKAGKL

Rank (after) [5]: 393 | Rank (before) [6]: 3447
Sequence: NELVKVWSSKANRLVG

Population [15]: 0.00291%
Sequence: SSFREGLRRLLELSKK

P8_MyD88 Rank (after) [1]: 587 | P8_MyD88 Rank (before) [2]: 1517
Sequence: WALDLEWFYERLFSQM

Rank (after) [9]: 186 | Rank (before) [10]: 239
Sequence: NSSWALEELVKIMEAM

P8_MyD88 Rank (after) [13]: 728 | P8_MyD88 Rank (before) [14]: 3748
Sequence: SDVDHLTYLVRVRLCR
